Test results taken from PMC11217935, “Facile Halogenation of Antimicrobial Peptides As Demonstrated by Producing Bromotryptophan-Labeled Nisin Variants with Enhanced Antimicrobial Activity” (Journal of Natural Products, 2024).
Values after ≈ are worked out from the molar mass of the structure shown.

Columns and labels:
[1] = tested on: Lactococcus lactis MG1363; type: cell-based; conditions: for fold decrease in activity: L. lactis (MG1363), from MIC values, I1W compared with nisin, analogue-labelled variants by the numbers compared with Trp variant
Procedure: (§1) MIC values were determined using broth microdilution according to standard guidelines.[42] The inoculum was adjusted to approximately 5 × 10^5 CFU/mL, and the MIC was defined as the lowest concentration of antimicrobial compound with no visible growth after overnight incubation at 37 °C (or at 30 °C for L. lactis strain).

[2] = tested on: Bacillus cereus CH-85; assay: MIC, broth microdilution; type: cell-based; conditions: one of two tested pathogens (B. cereus CH-85); compared with wild-type nisin
Procedure: as §1

[3] = tested on: Staphylococcus aureus LMG15975 (MRSA); assay: MIC, broth microdilution; type: cell-based; conditions: one of two tested pathogens (S. aureus LMG15975 MRSA), WHO priority pathogen; compared with wild-type nisin
Procedure: as §1

[4] = Spot-on-lawn assay to test lipid II binding; type: cell-based, Bacillus cereus; conditions: B. cereus CH-85 lawn on LB agar; lipid II (600 μM, 2 μL per Figure 6; 0.8 mol/L, 2 μL per method) spotted at edge of halo; overnight 37 °C; preliminary results
Procedure: A 0.1% (v/v) inoculum of B. cereus CH-85 from an overnight culture was added to 1.5% (w/v) LB agar at 45 °C, and 10 mL of the mixture was poured onto a plate. The binding of the peptide to lipid II was evaluated by spotting purified lipid II ([…], 2 μL)[38],[41] at the edge of the 0.2 mg antibiotic inhibition halo. Specifically, 5 μL of the antibiotic was loaded onto the agar plate, and after drying, the lipid II solution was spotted at the edge of the inhibition halo. The plate was then incubated overnight at 37 °C.

[5] = tested on: B. cereus CH-85; assay: Time-kill assay; type: cell-based, Bacillus cereus; conditions: within 3 h, 5 × 10^5 cells per mL, 37 °C, triplicate
Procedure: The antimicrobial activity of nisin and its brominated variants was evaluated against B. cereus CH-85 using a previously described procedure.[38],[41] Briefly, an overnight culture of B. cereus was diluted 50-fold in LB medium and grown at 37 °C with aeration until reaching an OD600 of 0.5, after which the cell concentration was adjusted to 5 × 10^5 cells per mL. Bacteria were then exposed to different concentrations of nisin or brominated nisin variant in culture tubes at 37 °C and 180 rpm, with untreated bacteria serving as a negative control. At desired time points, 50 μL aliquots were taken, and 10-fold serial dilutions were plated on LB agar plates. After overnight incubation at 37 °C, colonies were counted, and colony-forming units (CFU) per milliliter were calculated. Each experiment was performed in triplicate.

[6] = tested on: Enterococcus faecium LMG16003 (VRE); assay: MIC, broth microdilution; type: cell-based; conditions: E. faecium; from MIC values
Procedure: as §1

[7] = tested on: Staphylococcus aureus LMG10147; assay: MIC, broth microdilution; type: cell-based; conditions: S. aureus (text: 'S. aureus' / 'one S. aureus'; by Table 2 LMG10147); from MIC values
Procedure: as §1

[8] = tested on: Enterococcus faecalis LMG16216 (VRE); assay: MIC, broth microdilution; type: cell-based; conditions: E. faecalis; from MIC values
Procedure: as §1

| Compound | MIC [1] [µg/mL] | effect of externally added purified lipid II on antimicrobial activity (inhibition halo) [4] | fold decrease in activity [1] [fold] | fold decrease in activity [7] [fold] | also measured |
| --- | --- | --- | --- | --- | --- |
| C=C(NC(=O)[C@@H](NC(=O)[C@H](Cc1c[nH]cn1)NC(=O)[C@@H](NC(=O)[C@H](CO)NC(=O)[C@@H]1CS[C@@H](C)[C@H]2NC(=O)[C@H](C)NC(=O)[C@H](NC(=O)[C@H](CCCCN)NC(=O)[C@H](CCSC)NC(=O)[C@H](CC(N)=O)NC(=O)[C@@H]3CS[C@@H](C)[C@@H](NC(=O)[C@H](CCCCN)NC(=O)[C@@H]4CS[C@@H](C)[C@@H](NC(=O)[C@@H]5CSC[C@@H](NC(=O)/C(=C/C)NC(=O)[C@@H](N)Cc6c[nH]c7ccc(Br)cc67)C(=O)N[C@@H]([C@@H](C)CC)C(=O)NC(=C)C(=O)N[C@@H](CC(C)C)C(=O)N5)C(=O)N5CCC[C@H]5C(=O)NCC(=O)N4)C(=O)NCC(=O)N[C@@H](C)C(=O)N[C@@H](CC(C)C)C(=O)N[C@@H](CCSC)C(=O)NCC(=O)N3)[C@H](C)SC[C@H](NC2=O)C(=O)N[C@@H](Cc2c[nH]cn2)C(=O)N1)[C@@H](C)CC)C(C)C)C(=O)N[C@@H](CCCCN)C(=O)O [nisin I1W 5BrTrp] | 0.04 (≈ 0.0114 µM) | decreased the antimicrobial activity | – | – | fold improvement in antimicrobial activity [2]: 2 fold; fold improvement in antimicrobial activity [3]: 2 fold; killing activity (viability of exponential culture) ([5]; B. cereus CH-85, 2.5 μg/mL (lowest concentration tested)): only slight killing; killing activity (viability of exponential culture) ([5]; B. cereus CH-85, 15 μg/mL): slower bactericidal activity than did nisin |
| C=C(NC(=O)[C@@H](NC(=O)[C@H](Cc1c[nH]cn1)NC(=O)[C@@H](NC(=O)[C@H](CO)NC(=O)[C@@H]1CS[C@@H](C)[C@H]2NC(=O)[C@H](C)NC(=O)[C@H](NC(=O)[C@H](CCCCN)NC(=O)[C@H](CCSC)NC(=O)[C@H](CC(N)=O)NC(=O)[C@@H]3CS[C@@H](C)[C@@H](NC(=O)[C@H](CCCCN)NC(=O)[C@@H]4CS[C@@H](C)[C@@H](NC(=O)[C@@H]5CSC[C@@H](NC(=O)/C(=C/C)NC(=O)[C@@H](N)Cc6c[nH]c7ccc(O)cc67)C(=O)N[C@@H]([C@@H](C)CC)C(=O)NC(=C)C(=O)N[C@@H](CC(C)C)C(=O)N5)C(=O)N5CCC[C@H]5C(=O)NCC(=O)N4)C(=O)NCC(=O)N[C@@H](C)C(=O)N[C@@H](CC(C)C)C(=O)N[C@@H](CCSC)C(=O)NCC(=O)N3)[C@H](C)SC[C@H](NC2=O)C(=O)N[C@@H](Cc2c[nH]cn2)C(=O)N1)[C@@H](C)CC)C(C)C)C(=O)N[C@@H](CCCCN)C(=O)O [nisin I1W 5OHTrp] | 0.08 (≈ 0.0232 µM) | – | 2 | 2 | fold decrease in activity [6]: 2 fold |
| C=C(NC(=O)[C@@H](NC(=O)[C@H](Cc1c[nH]cn1)NC(=O)[C@@H](NC(=O)[C@H](CO)NC(=O)[C@@H]1CS[C@@H](C)[C@H]2NC(=O)[C@H](C)NC(=O)[C@H](NC(=O)[C@H](CCCCN)NC(=O)[C@H](CCSC)NC(=O)[C@H](CC(N)=O)NC(=O)[C@@H]3CS[C@@H](C)[C@@H](NC(=O)[C@H](CCCCN)NC(=O)[C@@H]4CS[C@@H](C)[C@@H](NC(=O)[C@@H]5CSC[C@@H](NC(=O)/C(=C/C)NC(=O)[C@@H](N)Cc6c[nH]c7cc(Br)ccc67)C(=O)N[C@@H]([C@@H](C)CC)C(=O)NC(=C)C(=O)N[C@@H](CC(C)C)C(=O)N5)C(=O)N5CCC[C@H]5C(=O)NCC(=O)N4)C(=O)NCC(=O)N[C@@H](C)C(=O)N[C@@H](CC(C)C)C(=O)N[C@@H](CCSC)C(=O)NCC(=O)N3)[C@H](C)SC[C@H](NC2=O)C(=O)N[C@@H](Cc2c[nH]cn2)C(=O)N1)[C@@H](C)CC)C(C)C)C(=O)N[C@@H](CCCCN)C(=O)O [nisin I1W 6BrTrp] | 0.08 (≈ 0.0228 µM) | – | 2 | 2 | fold decrease in activity [8]: 2 fold |
| C=C(NC(=O)[C@@H](NC(=O)[C@H](Cc1c[nH]cn1)NC(=O)[C@@H](NC(=O)[C@H](CO)NC(=O)[C@@H]1CS[C@@H](C)[C@H]2NC(=O)[C@H](C)NC(=O)[C@H](NC(=O)[C@H](CCCCN)NC(=O)[C@H](CCSC)NC(=O)[C@H](CC(N)=O)NC(=O)[C@@H]3CS[C@@H](C)[C@@H](NC(=O)[C@H](CCCCN)NC(=O)[C@@H]4CS[C@@H](C)[C@@H](NC(=O)[C@@H]5CSC[C@@H](NC(=O)/C(=C/C)NC(=O)[C@@H](N)Cc6c[nH]c7ccccc67)C(=O)N[C@@H]([C@@H](C)CC)C(=O)NC(=C)C(=O)N[C@@H](CC(C)C)C(=O)N5)C(=O)N5CCC[C@H]5C(=O)NCC(=O)N4)C(=O)NCC(=O)N[C@@H](C)C(=O)N[C@@H](CC(C)C)C(=O)N[C@@H](CCSC)C(=O)NCC(=O)N3)[C@H](C)SC[C@H](NC2=O)C(=O)N[C@@H](Cc2c[nH]cn2)C(=O)N1)[C@@H](C)CC)C(C)C)C(=O)N[C@@H](CCCCN)C(=O)O [nisin I1W Trp] | 0.04 (≈ 0.0117 µM) | – | 2 | – | – |
| daptomycin [reference compound] | – | maintained its antimicrobial activity | – | – | – |
